Activity calls are given as the source filed them.
What was measured:
Cytochrome P450 3A4 = Cytochrome P450 3A4 (Homo sapiens, UniProt P08684); settings: Potency;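 also: confirmatory qHTS run detecting inhibitors and substrates of CYP3A4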
[1] = Trypanosoma cruzi growth suppression in host cells – NIH3T3 host cells, beta-gal luminescence, confirmation (AID 2044); assay type: functional, cell-based;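 also: intracellular parasites grown in NIH/3T3 mouse fibroblasts as host cells; luminescent beta-galactosidase reporter signal from transgenic T. cruzi replicating inside host cells; inhibitors lower the luminescence signal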
[2] = NIH3T3 cell viability loss – ATP luminescence, mouse fibroblasts, counter-screen, dose response (AID 2010); assay type: functional, cell-based;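 also: cells exposed to compound for about 90 hours before reading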
[3] = target: Delta-type opioid receptor (Homo sapiens, UniProt P41143); assay: Counterscreen for agonists of heterodimerization of the mu 1 (OPRM1) and delta 1 (OPRD1) opioid receptors: Luminescence-based cell-based high throughput dose response assay to identify agonists of OPRD1 homodimerization. [Related pubchem assays (depositor defined):AID504326, AID504355, AID504692, AID504904, AID504905]; assay type: functional
Sequence of Delta-type opioid receptor (P41143 whole entry): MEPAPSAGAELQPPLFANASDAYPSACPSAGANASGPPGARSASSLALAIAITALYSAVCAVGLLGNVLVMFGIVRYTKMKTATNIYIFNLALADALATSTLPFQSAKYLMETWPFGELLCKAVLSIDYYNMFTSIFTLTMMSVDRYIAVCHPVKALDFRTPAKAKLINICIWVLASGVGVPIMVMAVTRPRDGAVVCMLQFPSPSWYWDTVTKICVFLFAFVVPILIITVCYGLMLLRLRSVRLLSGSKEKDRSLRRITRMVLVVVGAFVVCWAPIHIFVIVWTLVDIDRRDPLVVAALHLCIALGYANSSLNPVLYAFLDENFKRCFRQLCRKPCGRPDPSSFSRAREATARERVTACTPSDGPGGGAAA

Mu-type opioid receptor = Mu-type opioid receptor (Homo sapiens, UniProt P35372); assay: Counterscreen for agonists of heterodimerization of the mu 1 (OPRM1) and delta 1 (OPRD1) opioid receptors: Luminescence-based cell-based high throughput dose response assay to identify agonists of OPRM1 homodimerization.; assay type: functional;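 also: U2OS cells expressing OPRM1 and beta-arrestin as split beta-galactosidase partners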
Sequence of Mu-type opioid receptor (P35372 whole entry): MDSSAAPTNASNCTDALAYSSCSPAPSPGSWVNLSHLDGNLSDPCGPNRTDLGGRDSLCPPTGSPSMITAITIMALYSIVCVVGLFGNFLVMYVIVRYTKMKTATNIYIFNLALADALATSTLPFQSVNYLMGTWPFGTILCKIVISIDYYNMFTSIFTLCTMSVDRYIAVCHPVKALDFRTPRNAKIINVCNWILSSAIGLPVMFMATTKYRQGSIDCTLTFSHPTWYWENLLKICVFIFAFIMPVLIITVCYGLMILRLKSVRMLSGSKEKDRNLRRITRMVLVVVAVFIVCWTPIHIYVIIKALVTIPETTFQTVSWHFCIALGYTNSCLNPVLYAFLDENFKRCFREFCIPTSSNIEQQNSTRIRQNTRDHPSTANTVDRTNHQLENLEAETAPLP

[4] = target: 5-hydroxytryptamine receptor 5A (Homo sapiens, UniProt P47898); assay: Counterscreen for agonists of OPRM1-OPRD1 heterodimerization: luminescence-based cell-based high throughput dose response assay to identify agonists of 5-hydroxytryptamine (serotonin) 5A receptor (HTR5A). [Related pubchem assays (depositor defined):AID504326, AID504355, AID504692, AID504904, AID504905]; assay type: functional
Sequence of 5-hydroxytryptamine receptor 5A (P47898 whole entry): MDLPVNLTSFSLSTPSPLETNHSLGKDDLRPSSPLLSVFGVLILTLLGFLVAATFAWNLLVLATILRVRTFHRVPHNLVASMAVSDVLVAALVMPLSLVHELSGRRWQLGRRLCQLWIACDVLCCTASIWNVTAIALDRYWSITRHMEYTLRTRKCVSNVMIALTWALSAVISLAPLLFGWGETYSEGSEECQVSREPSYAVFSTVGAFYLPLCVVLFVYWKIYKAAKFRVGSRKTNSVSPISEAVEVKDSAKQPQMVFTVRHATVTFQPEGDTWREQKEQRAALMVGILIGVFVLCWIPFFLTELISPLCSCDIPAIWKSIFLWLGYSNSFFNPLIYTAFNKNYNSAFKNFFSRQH

[5] = target: T1, Short transient receptor potential channel 4 (Mus musculus, UniProt Q9QUQ5); assay: calcium entry via TRPC4 opening agents – cell-based, HEK293 TRPC4/mu-opioid, Fluo-4 calcium, dose response (AID 434937); assay type: functional
T1 sequence (Q9QUQ5 whole entry): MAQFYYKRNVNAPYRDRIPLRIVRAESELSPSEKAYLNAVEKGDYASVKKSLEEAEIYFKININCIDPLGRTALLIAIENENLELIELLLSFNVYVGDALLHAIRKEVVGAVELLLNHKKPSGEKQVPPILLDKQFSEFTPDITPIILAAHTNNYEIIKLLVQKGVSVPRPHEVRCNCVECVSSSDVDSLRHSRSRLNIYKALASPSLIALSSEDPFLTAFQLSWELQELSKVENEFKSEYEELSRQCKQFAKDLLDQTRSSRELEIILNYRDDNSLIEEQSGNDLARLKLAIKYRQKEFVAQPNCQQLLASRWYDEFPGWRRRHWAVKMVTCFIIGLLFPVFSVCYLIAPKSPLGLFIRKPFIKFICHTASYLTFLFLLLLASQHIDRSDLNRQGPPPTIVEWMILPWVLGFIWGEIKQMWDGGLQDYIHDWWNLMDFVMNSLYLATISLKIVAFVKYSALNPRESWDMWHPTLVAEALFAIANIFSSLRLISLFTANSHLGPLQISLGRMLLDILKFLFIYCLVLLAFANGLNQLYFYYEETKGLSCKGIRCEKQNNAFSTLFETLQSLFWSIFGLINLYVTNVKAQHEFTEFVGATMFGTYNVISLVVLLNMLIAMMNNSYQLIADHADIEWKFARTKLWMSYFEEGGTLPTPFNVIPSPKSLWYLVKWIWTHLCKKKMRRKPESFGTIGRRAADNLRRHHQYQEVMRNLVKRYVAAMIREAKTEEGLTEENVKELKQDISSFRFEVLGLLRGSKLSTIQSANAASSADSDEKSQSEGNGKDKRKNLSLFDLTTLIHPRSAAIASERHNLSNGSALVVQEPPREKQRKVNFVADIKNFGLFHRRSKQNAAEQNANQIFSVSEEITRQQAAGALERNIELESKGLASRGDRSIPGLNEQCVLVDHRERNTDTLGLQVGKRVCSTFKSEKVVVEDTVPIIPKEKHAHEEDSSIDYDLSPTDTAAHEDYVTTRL

Nonstructural protein 1 = Nonstructural protein 1 (Influenza A virus, UniProt Q194T2); assay type: functional, Influenza A virus (A/California/07/2009(H1N1))
[6] = target: T2, Sentrin-specific protease 8 (Homo sapiens, UniProt Q96LD8); assay type: functional
T2 sequence (Q96LD8 whole entry): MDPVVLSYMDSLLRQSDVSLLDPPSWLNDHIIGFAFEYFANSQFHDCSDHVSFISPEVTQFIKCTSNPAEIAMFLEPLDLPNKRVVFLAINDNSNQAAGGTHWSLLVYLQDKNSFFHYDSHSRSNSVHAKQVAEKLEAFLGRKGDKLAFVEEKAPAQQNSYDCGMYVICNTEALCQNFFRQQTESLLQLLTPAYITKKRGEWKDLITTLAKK

[7] = target: T2, Sentrin-specific protease 8; assay type: functional; remark: listed apart in the source
[8] = target: T3, Voltage-gated N-type calcium channel alpha-1B subunit/Amyloid beta A4 precursor protein-binding family A member 1 (Homo sapiens, UniProt Q00975+Q02410); assay type: protein assay
T3 sequence (Q00975 whole entry): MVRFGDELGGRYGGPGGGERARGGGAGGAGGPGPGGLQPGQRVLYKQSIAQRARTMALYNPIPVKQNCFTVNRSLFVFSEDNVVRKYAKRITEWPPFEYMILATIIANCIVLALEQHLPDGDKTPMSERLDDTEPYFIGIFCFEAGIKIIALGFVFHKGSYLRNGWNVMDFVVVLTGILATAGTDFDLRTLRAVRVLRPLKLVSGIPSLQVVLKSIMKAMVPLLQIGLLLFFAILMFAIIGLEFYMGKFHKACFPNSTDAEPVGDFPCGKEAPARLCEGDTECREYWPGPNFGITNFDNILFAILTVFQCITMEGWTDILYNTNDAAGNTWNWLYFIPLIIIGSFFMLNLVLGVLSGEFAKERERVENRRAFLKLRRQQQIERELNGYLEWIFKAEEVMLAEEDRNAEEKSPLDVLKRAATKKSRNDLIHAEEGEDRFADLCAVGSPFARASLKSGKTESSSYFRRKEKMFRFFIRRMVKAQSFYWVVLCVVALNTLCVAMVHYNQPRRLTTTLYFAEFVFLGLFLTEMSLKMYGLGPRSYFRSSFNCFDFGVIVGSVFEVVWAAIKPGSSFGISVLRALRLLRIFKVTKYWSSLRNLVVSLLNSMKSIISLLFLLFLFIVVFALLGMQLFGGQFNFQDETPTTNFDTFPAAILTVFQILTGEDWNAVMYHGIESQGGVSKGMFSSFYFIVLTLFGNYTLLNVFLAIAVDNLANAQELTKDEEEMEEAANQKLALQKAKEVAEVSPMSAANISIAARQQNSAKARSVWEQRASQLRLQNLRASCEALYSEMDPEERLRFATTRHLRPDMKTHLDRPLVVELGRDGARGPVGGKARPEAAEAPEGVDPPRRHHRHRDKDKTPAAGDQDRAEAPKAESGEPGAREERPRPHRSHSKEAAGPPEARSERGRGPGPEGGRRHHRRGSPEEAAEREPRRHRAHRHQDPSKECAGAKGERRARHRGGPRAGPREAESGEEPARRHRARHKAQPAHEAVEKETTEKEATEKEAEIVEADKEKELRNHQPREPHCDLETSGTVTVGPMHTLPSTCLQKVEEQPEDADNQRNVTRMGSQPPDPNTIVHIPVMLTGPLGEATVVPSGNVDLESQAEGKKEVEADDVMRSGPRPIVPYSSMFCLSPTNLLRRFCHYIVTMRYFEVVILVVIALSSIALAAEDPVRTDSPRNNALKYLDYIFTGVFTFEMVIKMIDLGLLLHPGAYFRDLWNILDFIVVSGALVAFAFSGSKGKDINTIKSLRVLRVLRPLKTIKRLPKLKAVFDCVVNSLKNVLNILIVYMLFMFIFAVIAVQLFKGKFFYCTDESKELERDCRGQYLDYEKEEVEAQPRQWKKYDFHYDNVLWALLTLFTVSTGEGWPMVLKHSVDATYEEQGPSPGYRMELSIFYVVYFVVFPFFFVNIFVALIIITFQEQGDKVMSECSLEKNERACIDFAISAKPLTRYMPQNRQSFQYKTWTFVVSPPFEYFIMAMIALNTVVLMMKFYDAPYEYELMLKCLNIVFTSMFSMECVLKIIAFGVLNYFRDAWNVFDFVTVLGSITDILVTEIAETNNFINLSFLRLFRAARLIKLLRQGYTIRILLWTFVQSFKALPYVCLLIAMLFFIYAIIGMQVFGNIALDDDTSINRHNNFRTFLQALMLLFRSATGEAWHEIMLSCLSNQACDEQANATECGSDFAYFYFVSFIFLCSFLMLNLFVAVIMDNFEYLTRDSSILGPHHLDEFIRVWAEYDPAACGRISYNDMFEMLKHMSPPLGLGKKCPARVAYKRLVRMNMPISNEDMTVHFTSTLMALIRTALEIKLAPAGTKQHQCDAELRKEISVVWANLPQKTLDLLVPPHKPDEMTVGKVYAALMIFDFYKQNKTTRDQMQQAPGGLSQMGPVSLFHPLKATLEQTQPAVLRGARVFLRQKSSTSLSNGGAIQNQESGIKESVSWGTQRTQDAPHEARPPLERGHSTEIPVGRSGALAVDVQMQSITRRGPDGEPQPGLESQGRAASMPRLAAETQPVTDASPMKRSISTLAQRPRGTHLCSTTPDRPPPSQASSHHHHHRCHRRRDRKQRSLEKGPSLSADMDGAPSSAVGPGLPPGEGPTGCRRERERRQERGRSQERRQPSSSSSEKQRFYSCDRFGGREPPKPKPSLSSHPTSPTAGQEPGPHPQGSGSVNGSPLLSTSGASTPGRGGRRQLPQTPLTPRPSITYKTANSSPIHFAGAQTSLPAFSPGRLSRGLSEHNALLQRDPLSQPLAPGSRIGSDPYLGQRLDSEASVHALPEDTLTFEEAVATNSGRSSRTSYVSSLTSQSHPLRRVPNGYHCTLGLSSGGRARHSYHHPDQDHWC
T3 sequence (Q02410 whole entry): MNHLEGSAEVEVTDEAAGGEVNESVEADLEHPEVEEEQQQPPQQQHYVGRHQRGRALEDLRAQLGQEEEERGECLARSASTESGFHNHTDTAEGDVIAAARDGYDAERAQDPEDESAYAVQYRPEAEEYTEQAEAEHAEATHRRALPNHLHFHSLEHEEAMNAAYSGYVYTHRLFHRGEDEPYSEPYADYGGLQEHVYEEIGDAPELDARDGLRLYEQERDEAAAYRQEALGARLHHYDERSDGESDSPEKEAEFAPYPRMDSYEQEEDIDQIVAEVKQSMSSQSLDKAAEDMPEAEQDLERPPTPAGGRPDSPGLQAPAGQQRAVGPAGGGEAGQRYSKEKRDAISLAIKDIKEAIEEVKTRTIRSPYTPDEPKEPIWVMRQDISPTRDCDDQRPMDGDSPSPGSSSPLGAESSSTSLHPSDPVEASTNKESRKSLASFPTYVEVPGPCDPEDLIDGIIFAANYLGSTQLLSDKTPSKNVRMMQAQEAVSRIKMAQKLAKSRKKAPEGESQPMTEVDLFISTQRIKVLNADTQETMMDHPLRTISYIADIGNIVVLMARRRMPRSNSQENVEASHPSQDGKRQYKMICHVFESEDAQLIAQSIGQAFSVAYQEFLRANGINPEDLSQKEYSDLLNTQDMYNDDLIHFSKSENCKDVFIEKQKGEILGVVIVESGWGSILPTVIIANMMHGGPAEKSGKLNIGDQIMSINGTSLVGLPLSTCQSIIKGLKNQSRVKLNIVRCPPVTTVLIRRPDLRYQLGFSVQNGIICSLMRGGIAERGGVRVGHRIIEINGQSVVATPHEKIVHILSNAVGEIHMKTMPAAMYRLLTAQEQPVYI

[9] = target: T3, Voltage-gated N-type calcium channel alpha-1B subunit/Amyloid beta A4 precursor protein-binding family A member 1; assay type: protein assay; remark: listed apart in the source
[10] = target: Eukaryotic translation initiation factor 4E (Mus musculus, UniProt P63073); assay: blockers of eIF4G binding by eIF4E – biochemical, TR-FRET, dose response (AID 855); assay type: functional;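 also: potency for disrupting eIF4E binding to eIF4GI seen as loss of FRET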
[11] = target: DNA dC->dU-editing enzyme APOBEC-3A (Homo sapiens, UniProt P31941); assay: Dose Response confirmation of small molecule APOBEC3A DNA Deaminase Inhibitors via a fluorescence-based single-stranded DNA deaminase assay. [Related pubchem assays (depositor defined):AID493011, AID493024]; assay type: functional
Sequence of DNA dC->dU-editing enzyme APOBEC-3A (P31941 whole entry): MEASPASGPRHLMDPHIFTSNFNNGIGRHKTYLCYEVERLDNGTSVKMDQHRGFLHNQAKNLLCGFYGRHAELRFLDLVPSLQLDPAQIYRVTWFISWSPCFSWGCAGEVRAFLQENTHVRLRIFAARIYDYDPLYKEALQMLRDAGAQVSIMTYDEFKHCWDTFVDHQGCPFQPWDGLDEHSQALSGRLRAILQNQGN

[12] = target: DNA dC->dU-editing enzyme APOBEC-3G (Homo sapiens, UniProt Q9HC16); assay type: functional;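 also: Dose-response counterscreen measuring inhibition of APOBEC3G DNA deaminase activity, run while confirming APOBEC3A inhibitors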
[13] = target: T4, DNA repair and recombination protein RAD54-like (Homo sapiens, UniProt Q92698); assay: RAD54 Holliday junction migration blockers – biochemical, fluorescence, cherry-picked samples, dose series, confirmation (AID 651657); assay type: functional
T4 sequence (Q92698 whole entry): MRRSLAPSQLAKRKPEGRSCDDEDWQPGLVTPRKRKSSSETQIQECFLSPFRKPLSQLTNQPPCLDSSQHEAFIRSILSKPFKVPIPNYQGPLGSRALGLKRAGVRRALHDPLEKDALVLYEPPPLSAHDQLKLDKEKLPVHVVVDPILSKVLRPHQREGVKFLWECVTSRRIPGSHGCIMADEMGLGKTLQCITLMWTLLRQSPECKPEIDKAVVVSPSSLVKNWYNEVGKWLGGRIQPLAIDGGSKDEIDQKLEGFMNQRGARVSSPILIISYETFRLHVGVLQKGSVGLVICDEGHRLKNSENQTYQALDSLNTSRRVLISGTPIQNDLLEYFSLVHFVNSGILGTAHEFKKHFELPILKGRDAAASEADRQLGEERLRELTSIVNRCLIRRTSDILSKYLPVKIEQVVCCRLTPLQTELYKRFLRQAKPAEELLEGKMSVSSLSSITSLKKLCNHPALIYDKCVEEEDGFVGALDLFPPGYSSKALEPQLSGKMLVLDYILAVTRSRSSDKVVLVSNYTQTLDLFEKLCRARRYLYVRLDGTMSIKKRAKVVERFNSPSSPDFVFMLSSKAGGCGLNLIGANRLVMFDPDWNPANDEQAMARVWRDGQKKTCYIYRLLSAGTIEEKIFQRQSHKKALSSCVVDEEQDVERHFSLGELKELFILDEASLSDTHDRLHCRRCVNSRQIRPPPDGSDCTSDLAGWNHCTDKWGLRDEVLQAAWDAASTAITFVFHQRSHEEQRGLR

HEK293 [14] = assay: inhibition of NOD1-driven NF-kB reporter – cell-based, luminescence, uHTS, primary screen (AID 1578); assay type: functional; settings: Homo sapiens
HEK293 [15] = assay: cells; assay type: functional, cell-based; settings: Homo sapiens
HEK293 [16] = assay: cells; assay type: functional, cell-based; settings: Homo sapiens; remark: listed apart in the source
[17] = target: Nucleotide-binding oligomerization domain-containing protein 2 (Homo sapiens, UniProt Q9HC29); assay: inhibition of NOD2-driven NF-kB reporter – cell-based, luminescence, uHTS, HEK293 (AID 1566); assay type: functional
HEK293 [18] = assay: NOD2 signaling inhibitors in MDP-stimulated cells, cell-based, uHTS, luminescence (AID 2001); assay type: functional; settings: Homo sapiens
HEK293 [19] = assay: cells; assay type: functional, cell-based; settings: Homo sapiens; remark: listed apart in the source
INS1 = assay: INS-1E survival protection against cytokine death – cell-based, luminescence, retest, dose response (AID 449756); assay type: functional; settings: Rattus norvegicus;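 also: cell death triggered by IL-1 beta plus TNF-alpha plus IFN-gamma mixture; protective hits raise ATP signal compared with cytokine alone wells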
[20] = target: T5, Heat shock factor protein 1 (Mus musculus, UniProt P38532); assay: enhancement of HSF1-driven luciferase signal – cell-based, NIH3T3, luminescence, dose retest, confirmation (AID 435004); assay type: functional;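 also: stress induced by proteasome inhibitor MG132 added 30 min after compound; luciferase reporter driven by HSF1 response element in NIH3T3 cells; actives raise luminescence as potentiators of the MG132 stress response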
T5 sequence (P38532 whole entry): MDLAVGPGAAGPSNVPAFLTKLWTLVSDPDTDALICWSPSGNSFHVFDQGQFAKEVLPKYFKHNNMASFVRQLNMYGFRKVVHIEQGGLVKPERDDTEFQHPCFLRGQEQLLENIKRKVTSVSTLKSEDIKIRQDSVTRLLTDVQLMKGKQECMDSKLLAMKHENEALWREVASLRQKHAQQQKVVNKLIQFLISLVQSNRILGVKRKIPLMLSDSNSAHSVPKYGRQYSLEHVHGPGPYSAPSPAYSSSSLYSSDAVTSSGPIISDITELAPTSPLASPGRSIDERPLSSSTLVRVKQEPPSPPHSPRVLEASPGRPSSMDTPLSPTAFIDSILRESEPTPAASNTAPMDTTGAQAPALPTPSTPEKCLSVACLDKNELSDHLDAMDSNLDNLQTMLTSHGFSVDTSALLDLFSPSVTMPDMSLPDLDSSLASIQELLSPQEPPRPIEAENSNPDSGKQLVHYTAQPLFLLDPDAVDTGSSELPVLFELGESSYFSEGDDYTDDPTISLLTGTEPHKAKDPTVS

Sequence of Cytochrome P450 3A4 (P08684 whole entry): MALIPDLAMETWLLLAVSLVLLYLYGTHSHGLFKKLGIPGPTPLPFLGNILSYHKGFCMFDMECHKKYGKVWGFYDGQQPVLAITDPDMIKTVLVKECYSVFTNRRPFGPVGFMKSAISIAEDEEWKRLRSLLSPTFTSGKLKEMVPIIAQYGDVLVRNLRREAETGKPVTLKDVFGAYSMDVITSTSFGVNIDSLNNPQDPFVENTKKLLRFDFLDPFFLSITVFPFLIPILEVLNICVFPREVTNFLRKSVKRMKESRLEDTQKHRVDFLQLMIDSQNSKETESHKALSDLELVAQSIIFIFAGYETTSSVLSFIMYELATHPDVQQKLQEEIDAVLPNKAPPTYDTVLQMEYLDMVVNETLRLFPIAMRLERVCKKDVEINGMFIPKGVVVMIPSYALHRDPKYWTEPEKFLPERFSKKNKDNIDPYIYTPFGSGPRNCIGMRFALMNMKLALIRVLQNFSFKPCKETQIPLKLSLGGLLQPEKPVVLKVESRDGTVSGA

Cc1ccc(N)cc1Cl
AC50 (Cytochrome P450 3A4): 12.6 µM (inconclusive)

CCOC(=O)C1(CCOc2ccccc2)CCN(Cc2cccn2-c2cccnc2)CC1
EC50 [1]: 2.94 µM (active)
EC50 [2]: > 30 µM (not active)
EC50 [3]: > 92.5 µM (inactive)
EC50 (Mu-type opioid receptor): 17.5 µM (inactive)
EC50 [4]: > 92.5 µM (inactive)

CCC1(C)CC(CCNCc2ccc(N(C)C)cc2)(c2ccc(F)cc2)CCO1 (stereo not drawn)
EC50 [5]: 5.96 µM (active)
EC50 [3]: > 92.3 µM (inactive)
EC50 (Mu-type opioid receptor): 29.2 µM (inactive)
EC50 [4]: > 92.3 µM (inactive)

Cc1n[nH]c(O)c1C(c1c(C)n[nH]c1O)c1cn(Cc2ccc(F)cc2)c2ccccc12
IC50 (Nonstructural protein 1): 47.2 µM (active)
IC50 [6]: 5.81 µM (active)
IC50 [7]: 6.07 µM (active)

O=C(CSc1ccc(Cl)cc1)Nc1ccc(-c2nc3ccccc3[nH]2)cc1
EC50 [3]: > 92.5 µM (inactive)
EC50 (Mu-type opioid receptor): > 92.5 µM (inactive)
EC50 [4]: > 92.5 µM (inactive)

OCC1(CCc2ccccc2)CCN(Cc2ccccc2Cl)CC1
EC50 [3]: > 92.4 µM (inactive)
EC50 (Mu-type opioid receptor): 67.6 µM (inactive)
EC50 [4]: > 92.4 µM (inactive)

O=C(O)c1cc(-c2ccco2)nn1-c1ccc(Cl)cc1
IC50 [8]: 5.13 µM (active)
IC50 [9]: 22.1 µM (active)
IC50 [10]: 50 µM (inactive)

CCC1=C2CC[C@H]3C(=O)N(CC(=O)OC)C(=O)[C@H]3[C@H]2[C@@]2(C)C(=O)N(CC3CC3)C(=O)N2C1=O
AC50 (Cytochrome P450 3A4): 7.94 µM (inconclusive)

CC(C)c1ccc(/C=C2\SC(=O)N(CC(=O)NC3CCS(=O)(=O)C3)C2=O)cc1 (stereo not drawn)
IC50 [8]: 12.4 µM (active)
IC50 [9]: > 50 µM (inactive)

Cc1ccccc1/C=C/c1cc[n+](C)cc1
IC50 [11]: 2.33 µM (active)
IC50 [12]: 3.38 µM (active)

C[C@H]1C[C@]2(O[C@@H]2C)C(=O)O[C@@H]2CCN(C)C/C=C(/COC(=O)[C@]1(C)O)C2=O
AC50 (Cytochrome P450 3A4): 25.1 µM (inconclusive)

Cc1cc(C)nc(NC(=S)Nc2ccc(Br)cc2Cl)c1
IC50 [8]: 5.57 µM (active)
IC50 [9]: > 50 µM (inactive)

CCCn1c(C)nc2c(NCCCCN(CC)CC)nc(C)nc21
AC50 (Cytochrome P450 3A4): 20 µM (inconclusive)

Cc1c(CN(C)C)c2c(n1C)C(=O)c1ccc(Br)cc1-2
AC50 [13]: 11.8 µM (active)

CCN(CC)c1ccc(S(=O)(=O)N2CCOCC2)cc1NC(=O)CN1CCc2ccccc2C1
EC50 (HEK293 [14]): 10.5 µM (active)
IC50 (HEK293 [15]): 7.07 µM (active)
IC50 (HEK293 [16]): > 20 µM (inactive)
EC50 [17]: 11.5 µM (active)
IC50 (HEK293 [18]): 11.5 µM (inactive)
IC50 (HEK293 [19]): > 20 µM (inactive)

FC(F)(F)c1cnc(NN=C(S)Nc2ccccc2Cl)c(Cl)c1
EC50 (HEK293 [14]): 6.06 µM (active)
IC50 (HEK293 [15]): 6.49 µM (active)
IC50 (HEK293 [16]): 15.1 µM (active)
IC50 (HEK293 [18]): 6.98 µM (inactive)
IC50 (HEK293 [19]): > 20 µM (inactive)
AC50 (INS1): 7.04 µM (active)

FC(F)(F)c1cnc(NNC(=S)Nc2ccccc2Cl)c(Cl)c1
EC50 [17]: 11 µM (active)

Cc1ccc(C)c(NC(=O)C2CC(O)CN2C(=O)Oc2ccccc2)c1 (stereo not drawn)
IC50 [11]: 10 µM (active)
EC50 [20]: > 260 µM (inactive)
IC50 [12]: 10.4 µM (active)

Reference: ChEMBL document CHEMBL1201862, “PubChem BioAssay data set” (2004)
